Assay results taken from patent publication US20230089867A1, “CYCLIC PENTAMER COMPOUNDS AS PROPROTEIN CONVERTASE SUBTILISIN/KEXIN TYPE 9 (PCSK9) INHIBITORS FOR THE TREATMENT OF METABOLIC DISORDER” (Novartis AG, priority 2018, published 2023).

Target: human PCSK9 (Homo sapiens, UniProt Q8NBP7)
Assay: PCSK9 ligand binding TR-FRET assay (interference with binding of human PCSK9 to human LDLR)
Settings: for Max % inhibition: PCSK9 FRET assay, efficacy (Amax), 100% = 1 uM unlabeled human PCSK9, 0% = DMSO; for IC50: TR-FRET, human PCSK9 Alexa Fluor 647 / human LDLR extracellular domain-Europium Kryptate, read-out: PCSK9 FRET Assay IC50
Outline: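 Threefold compound dilutions were pre-incubated 30 min with PCSK9, after which 4 nM Europium Kryptate-tagged human LDLR ectodomain was added for a further 2 h.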

Sequence of human PCSK9 (Q8NBP7 153-692): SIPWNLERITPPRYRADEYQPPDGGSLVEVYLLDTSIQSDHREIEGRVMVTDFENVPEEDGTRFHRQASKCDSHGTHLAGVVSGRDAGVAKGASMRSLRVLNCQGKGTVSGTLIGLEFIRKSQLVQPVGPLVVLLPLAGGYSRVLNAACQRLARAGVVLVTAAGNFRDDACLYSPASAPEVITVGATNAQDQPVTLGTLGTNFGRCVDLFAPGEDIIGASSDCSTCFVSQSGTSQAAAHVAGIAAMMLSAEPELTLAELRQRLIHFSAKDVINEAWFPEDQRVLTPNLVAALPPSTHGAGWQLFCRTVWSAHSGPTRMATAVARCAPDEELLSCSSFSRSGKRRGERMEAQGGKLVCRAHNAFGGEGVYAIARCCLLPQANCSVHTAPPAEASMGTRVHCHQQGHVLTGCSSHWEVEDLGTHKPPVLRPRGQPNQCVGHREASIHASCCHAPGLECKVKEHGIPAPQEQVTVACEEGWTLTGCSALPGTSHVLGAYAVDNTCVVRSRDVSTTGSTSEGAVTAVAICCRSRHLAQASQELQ
Sequence of human PCSK9 (Q8NBP7 31-152 partner limits assumed): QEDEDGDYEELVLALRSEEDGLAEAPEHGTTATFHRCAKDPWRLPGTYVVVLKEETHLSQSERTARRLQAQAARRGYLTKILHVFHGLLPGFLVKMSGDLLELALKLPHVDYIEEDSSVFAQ

SMILES	Max % inhibition [%]	IC50 [nM]
COC[C@@H]1NC(=O)[C@H](C)N(Cc2ccc(Cl)cc2Oc2ccc(-c3cnc(CN(C)C)n3C)cc2)C(=O)CC2(CC2)C(=O)N(C)[C@@H](C)CNC(=O)C[C@H](Cc2ccc(Cl)cc2)N(C)C1=O [Compound 201, (6S,11S,14S,17S)-18-(4-chloro-2-(4-(2-((dimethylamino)methyl)-1-methyl-1H-imidazol-5-yl)phenoxy)benzyl)-11-(4-chlorobenzyl)-14-(methoxymethyl)-5,6,12,17-tetramethyl-5,8,12,15,18-pentaazaspiro[2.17]icosane-4,9,13,16,19-pentaone]	72.22	441
COC[C@@H]1NC(=O)[C@H](C)N(Cc2ccc(Cl)cc2Oc2ccc(-c3cnc(CN4CCCC4)n3C)cc2)C(=O)C[C@@H](Cc2ccccc2)C(=O)N(C)[C@H]2CCCC[C@@H]2NC(=O)C[C@H](Cc2ccc(Cl)cc2)N(C)C1=O [Compound 203, (4S,7S,10S,14R,16aS,20aS)-14-benzyl-11-(4-chloro-2-(4-(1-methyl-2-(pyrrolidin-1-ylmethyl)-1H-imidazol-5-yl)phenoxy)benzyl)-4-(4-chlorobenzyl)-7-(methoxymethyl)-5,10,16-trimethylhexadecahydrobenzo[l][1,4,7,11,14]pentaazacyclooctadecine-2,6,9,12,15(3H)-pentaone]	90.79	2
CC[C@H]1C(=O)N[C@@H](CO)C(=O)N(C)[C@@H](Cc2ccc(Cl)cc2)CC(=O)NC[C@H](C)N(C)C(=O)[C@H](Cc2ccccc2)CC(=O)N1Cc1ccc(Cl)cc1Oc1ccc(-c2cnc(CN(C)C)n2C)cc1 [Compound 207, (2S,5S,8S,13S,16R)-16-benzyl-1-(4-chloro-2-(4-(2-((dimethylamino)methyl)-1-methyl-1H-imidazol-5-yl)phenoxy)benzyl)-8-(4-chlorobenzyl)-2-ethyl-5-(hydroxymethyl)-7,13,14-trimethyl-1,4,7,11,14-pentaazacyclooctadecane-3,6,10,15,18-pentaone]	102.49	2.2
CC[C@H]1C(=O)N[C@@H](COC)C(=O)N(C)[C@@H](Cc2ccc(Cl)c(F)c2)CC(=O)NC[C@H](C)N(C)C(=O)[C@H](Cc2ccccc2)CC(=O)N1Cc1ccc(Cl)cc1Oc1ccc(-c2cnc(CN(C)C)n2C)cc1 [Compound 209, (2S,5S,8S,13S,16R)-16-benzyl-1-(4-chloro-2-(4-(2-((dimethylamino)methyl)-1-methyl-1H-imidazol-5-yl)phenoxy)benzyl)-8-(4-chloro-3-fluorobenzyl)-2-ethyl-5-(methoxymethyl)-7,13,14-trimethyl-1,4,7,11,14-pentaazacyclooctadecane-3,6,10,15,18-pentaone]	98.10	4.9
COC[C@@H]1NC(=O)[C@H](CCS(C)(=O)=O)N(Cc2ccc(Cl)cc2Oc2ccc(-c3cnc(CN(C)C)n3C)cc2)C(=O)C[C@@H](Cc2ccccc2)C(=O)N(C)[C@@H](C)CNC(=O)C[C@H](Cc2ccc(Cl)cc2)N(C)C1=O [Compound 211, (2S,5S,8S,13S,16R)-16-benzyl-1-(4-chloro-2-(4-(2-((dimethylamino)methyl)-1-methyl-1H-imidazol-5-yl)phenoxy)benzyl)-8-(4-chlorobenzyl)-5-(methoxymethyl)-7,13,14-trimethyl-2-(2-(methylsulfonyl)ethyl)-1,4,7,11,14-pentaazacyclooctadecane-3,6,10,15,18-pentaone]	102.01	3.9

More lines, in order of falling IC50, values ahead:

Max % inhibition [%]	IC50 [nM]	SMILES
93.78	65.4	COC[C@H]1C(=O)N[C@@H](CO)C(=O)N(C)[C@@H](Cc2ccc(Cl)cc2)CC(=O)NC[C@H](C)N(C)C(=O)CCC(=O)N1Cc1ccccc1Oc1ccc(-c2cnc(CN(C)C)n2C)cc1 [Compound 200, (2S,5S,8S,13S)-8-(4-chlorobenzyl)-1-(2-(4-(2-((dimethylamino)methyl)-1-methyl-1H-imidazol-5-yl)phenoxy)benzyl)-5-(hydroxymethyl)-2-(methoxymethyl)-7,13,14-trimethyl-1,4,7,11,14-pentaazacyclooctadecane-3,6,10,15,18-pentaone]
91.38	14.7	COC[C@@H]1NC(=O)[C@H](C)N(Cc2cccnc2Oc2ccc(-c3cnc(CN(C)C)n3C)cc2)C(=O)C[C@@H](Cc2ccccc2)C(=O)N(C)[C@@H](C)CNC(=O)C[C@H](Cc2ccc(Cl)cc2)N(C)C1=O [Compound 210, (2S,5S,8S,13S,16R)-16-benzyl-8-(4-chlorobenzyl)-1-((2-(4-(2-((dimethylamino)methyl)-1-methyl-1H-imidazol-5-yl)phenoxy)pyridin-3-yl)methyl)-5-(methoxymethyl)-2,7,13,14-tetramethyl-1,4,7,11,14-pentaazacyclooctadecane-3,6,10,15,18-pentaone]
99.72	5.8	COC[C@@H]1NC(=O)[C@H](C)N(Cc2ccc(Cl)cc2Oc2ccc(-c3cnc(CN4CCCC4)n3C)cc2)C(=O)C[C@@H](Cc2cccc(OC(F)(F)F)c2)C(=O)N(C)[C@@H](C)CNC(=O)C[C@H](Cc2ccc(Cl)cc2)N(C)C1=O [Compound 206, (2S,5S,8S,13S,16R)-1-(4-chloro-2-(4-(1-methyl-2-(pyrrolidin-1-ylmethyl)-1H-imidazol-5-yl)phenoxy)benzyl)-8-(4-chlorobenzyl)-5-(methoxymethyl)-2,7,13,14-tetramethyl-16-(3-(trifluoromethoxy)benzyl)-1,4,7,11,14-pentaazacyclooctadecane-3,6,10,15,18-pentaone]
95.27	2.9	COC[C@@H]1NC(=O)[C@H](C)N(Cc2ccc(Cl)cc2Oc2ccc(-c3cnc(CN(C)C)n3C)cc2)C(=O)CCC(=O)N(C)[C@H]2CCCC[C@@H]2NC(=O)C[C@H](Cc2ccc(Cl)cc2)N(C)C1=O [Compound 202, (4S,7S,10S,16aS,20aS)-11-(4-chloro-2-(4-(2-((dimethylamino)methyl)-1-methyl-1H-imidazol-5-yl)phenoxy)benzyl)-4-(4-chlorobenzyl)-7-(methoxymethyl)-5,10,16-trimethylhexadecahydrobenzo[l][1,4,7,11,14]pentaazacyclooctadecine-2,6,9,12,15(3H)-pentaone]
87.45	2.7	COC[C@@H]1NC(=O)[C@H](C)N(Cc2c(F)cc(F)cc2Oc2ccc(-c3cnc(CN(C)C)n3C)cc2)C(=O)C[C@@H](Cc2ccccc2)C(=O)N(C)[C@H]2CCCC[C@@H]2NC(=O)C[C@H](Cc2ccc(Cl)cc2)N(C)C1=O [Compound 208, (4S,7S,10S,14R,16aS,20aS)-14-benzyl-4-(4-chlorobenzyl)-11-(2-(4-(2-((dimethylamino)methyl)-1-methyl-1H-imidazol-5-yl)phenoxy)-4,6-difluorobenzyl)-7-(methoxymethyl)-5,10,16-trimethylhexadecahydrobenzo[l][1,4,7,11,14]pentaazacyclooctadecine-2,6,9,12,15(3H)-pentaone]
93.20	2	COC[C@@H]1NC(=O)[C@H](C)N(Cc2ccc(Cl)cc2Oc2ccc(-c3cnc(CN4CCOCC4)n3C)cc2)C(=O)C[C@@H](Cc2ccccc2)C(=O)N(C)[C@@H](C)CNC(=O)C[C@H](Cc2ccc(Cl)cc2)N(C)C1=O [Compound 205, (2S,5S,8S,13S,16R)-16-benzyl-1-(4-chloro-2-(4-(1-methyl-2-(morpholinomethyl)-1H-imidazol-5-yl)phenoxy)benzyl)-8-(4-chlorobenzyl)-5-(methoxymethyl)-2,7,13,14-tetramethyl-1,4,7,11,14-pentaazacyclooctadecane-3,6,10,15,18-pentaone]
